Like-named read-outs stand apart in the source and are kept apart here.
Experiments:
[1] = tested on: retina (BCCAO-induced retinopathy); assay: Number of cells in retinal nuclear layers and GCL after BCCAO, eye drops; format: in vivo, rat (male); conditions: eye drops 1 μg/drop, twice a day, five days, vs BCCAO-induced degenerated retinas, 14 days
Procedure: Adult male rat litters were housed in the animal facility in individual cages in a 12 h light-dark cycle with food and water ad libitum. Animal housing, care and application of experimental procedures were in accordance with institutional guidelines under approved protocols (No: BA02/2000–26/2017, University of Pecs). Under isoflurane anesthesia, common carotid arteries were exposed on both sides through a midline incision and then ligated with a 3–0 filament. A group of animals (sham group) underwent all steps of the operating procedure except ligation of the carotid arteries. Immediately following the operation, the right eye of the animals was treated with derivatives of PACAP (PACAP-TAT /n = 17/ or VIP-TAT /n = 17/) eye drops (1 μg/drop). Dose and schedule of the eye drop treatments were based on our previous experiments (Werling et al. [2016]). In the experiment for histological analysis, the different derivatives were dissolved in benzalkonium solution for ophthalmic use (solutio ophthalmica cum benzalkonio (SOCB)). The left eye, serving as a control, was treated with vehicle containing neither PACAP-TAT nor VIP-TAT. Animals were treated for five consecutive days, twice a day with one drop of drug, under brief isoflurane anesthesia (max. 5 min).
Fourteen days after the operation, rats (n = 10 SHAM and n = 24 BCCAO) were killed with anesthetic and the eyes were processed for histology. The eyes were removed and the retinas were solved in phosphate buffered saline (PBS), fixed in 4% paraformaldehyde dissolved in 0.1 M phosphate buffer (PB) (Sigma, Budapest, Hungary) and embedded in Durcupan ACM resin (Sigma, Budapest, Hungary). Retinas were cut at 2 μm and stained with toluidine blue dye (Sigma, Hungary). Sections were mounted in DPX medium (Sigma, Hungary) and photographs were taken with a digital CCD camera using the Spot program. Central retinal areas within 1 mm from the optic nerve were used (n = 5 measurements from one tissue block). The following parameters were measured: (i) cross-section of the retina from the outer limiting membrane (OLM) to the inner limiting membrane (ILM), (ii) the width of individual retinal layers (outer nuclear layer [ONL], outer plexiform layer [OPL], inner nuclear layer [INL], inner plexiform layer [IPL]), (iii) the number of cells/100 μm section length in the GCL, and the (iv) number of cells/[…]. Results are presented as mean ± SEM. Statistical comparisons were made using the two-way ANOVA test followed by Tukey’s post hoc analysis.
Fig. 5 Quantification of the number of cells/100 μm GCL length (a), the number of cells/500 μm^2 ONL (b) and INL (c) areas in SHAM+SOCB, in SHAM+PACAP-TAT, in BCCAO+SOCB, and in BCCAO+PACAP-TAT animals. Statistical significance (*p < 0.05 vs. SHAM+SOCB retinas, #p < 0.05 vs. BCCAO+SOCB retinas) was calculated by two-way ANOVA followed by Bonferroni’s post hoc test
Fig. 7 Quantification of the number of cells/100 μm GCL length (a), the number of cells/500 μm^2 ONL (b) and INL (c) areas in SHAM+SOCB, in SHAM+VIP-TAT, in BCCAO+SOCB, and in BCCAO+VIP-TAT animals. Statistical significance (*p < 0.05 vs. SHAM+SOCB retinas, #p < 0.05 vs. BCCAO+SOCB retinas) was calculated by two-way ANOVA followed by Bonferroni’s post hoc test

PAC1 receptor = tested on: PAC1 receptor; design: method as in 2 sources, one per row (each row's own in cited_ref): ref Yu et al. [2014] ||| ref Vaudry et al. [2009]; conditions: vs VIP, ref Yu et al. [2014], cited from earlier work
Excerpt: The retinoprotective effects of PACAP are well-documented and have been proven in different injury models, such as excitotoxic, ischemic, UV light-induced, traumatic, diabetic and oxygen-induced injuries (Atlasz et al. [2008], [2011], [2016]; Kvarik et al. [2016]; Shioda et al. [2016]; Szabadfi et al. [2016]; Vaczy et al. [2016]). […] P ...

SMILES: CC[C@H](C)[C@H](NC(=O)[C@H](CO)NC(=O)[C@H](CC(N)=O)NC(=O)[C@H](CC(C)C)NC(=O)[C@H](Cc1ccc(O)cc1)NC(=O)[C@H](CCCCN)NC(=O)[C@H](CCCCN)NC(=O)[C@@H](NC(=O)[C@H](C)NC(=O)[C@H](CCSC)NC(=O)[C@H](CCC(N)=O)NC(=O)[C@H](CCCCN)NC(=O)[C@H](CCCNC(=N)N)NC(=O)[C@H](CC(C)C)NC(=O)[C@H](CCCNC(=N)N)NC(=O)[C@@H](NC(=O)[C@H](Cc1ccc(O)cc1)NC(=O)[C@H](CC(N)=O)NC(=O)[C@H](CC(=O)O)NC(=O)[C@@H](NC(=O)[C@H](Cc1ccccc1)NC(=O)[C@@H](NC(=O)[C@H](C)NC(=O)[C@H](CC(=O)O)NC(=O)[C@H](CO)NC(=O)[C@@H](N)Cc1c[nH]cn1)C(C)C)[C@@H](C)O)[C@@H](C)O)C(C)C)C(=O)N[C@@H](CC(C)C)C(=O)N[C@@H](CC(N)=O)C(=O)NCC(=O)N[C@@H](CCCNC(=N)N)C(=O)N[C@@H](CCCCN)C(=O)N[C@@H](CCCCN)C(=O)N[C@@H](CCCNC(=N)N)C(=O)N[C@@H](CCCNC(=N)N)C(=O)N[C@@H](CCC(N)=O)C(=O)N[C@@H](CCCNC(=N)N)C(=O)N[C@@H](CCCNC(=N)N)C(=O)N[C@@H](CCCNC(=N)N)C(=O)N1CCC[C@H]1C(=O)N[C@@H](CCC(N)=O)C(=O)O [VIP-TAT]
- Number of cells in the GCL/100 μm after BCCAO [1]: reduced cell loss in almost all nuclear layers, except in the ONL/500 μm2
- Number of cells in the INL/500 μm2 after BCCAO [1]: reduced cell loss in almost all nuclear layers, except in the ONL/500 μm2
- Activity on / affinity for PAC1 receptor relative to VIP (PAC1 receptor): higher activity on the activation of PACAP preferring PAC1receptor than VIP
- Activity on / affinity for PAC1 receptor relative to VIP (PAC1 receptor; listed as VIP bound to TAT peptide): higher affinity for PAC1-R

Reference: article PMC6581923 (Journal of Molecular Neuroscience, 2018)
